From US20060099712A1, “Correlation of anti-cancer activity of dyes with redox potentials” (Eastman Kodak Company, priority 2004, published 2006) come the findings set out here.

Molecules are shown by their SMILES. Values after ≈ are worked out from the molar mass of the structure shown. Values joined by “and” are separate entries in the source; they are usually repeats but may differ in a detail not shown here. Equal values may be shown once. Read-outs that look alike come from different tables or passages of the source. A value given as a limit tells only on which side of the number the result lay.

Assay [1] has as its system CCL 185 Human Lung Carcinoma. Nature of the assay: Initial in vitro screening, lung carcinoma cells. The format is cell-based. Particulars: for IC50: read-out: IC50 (concentration at which 50% of the cells of the culture are killed); for Selectivity: IC50 CV-1 / IC50 cell line 6 (lung carcinoma). The source says:
(§1) Other publications have shown that some cyanine dyes show anti-cancer activity. See I. Minami, Y. Kozai, H. Nomura and T. Tashiro, Chem. Phar. Bull. 30:3106 (1982); W. M. Anderson, D. L. Delinick, L. Benninger, J. M. Wood, S. T. Smiley and L. B. Chen, Biochemical Pharmacology, 45:691 (1993). […] (See L. G. S. Brooker, L. A. Sweet, Science, 105, (1947) and I. Minami, Y. Kozai, H. Nomura, T. Tashiro, Chem. Pharm. Bull., 30,3106 (1982) on chemotherapeutic investigations of cyanine dyes.) Table I lists initial in vitro screening results in various cell lines and a comparison with Adriamycin, which is a widely used chemotherapeutic agent.
(§2) Description of Cell Line • 1. CV-1 Normal Monkey Kidney Epithelial (control) • 2. CX-1 Human Colon Carcinoma • 3. Human Breast Carcinoma • 4. Human Pancreatic Carcinoma • 5. Human Bladder Carcinoma • 6. Human Lung Carcinoma • 7. Human Squamous Cell Carcinoma • 8. Human Adrenal Cortex Carcinoma

Assay [2] has as its system CV-1 Normal Monkey Kidney Epithelial. Nature of the assay: Clonogenic dye screening assay, CV-1 cells (IC50). The assay is classed as cell-based, African green monkey. Particulars: for IC50: Primates; for IC50 (concentration at which 50% of the cells of the culture are killed): cell line 1, CV-1 normal control. The gist of the method:
(§3)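 Cells seeded 16-30 h ahead (2000 CX-1 or 1000 CV-1 per well), exposed to serially diluted dyes for 3 h at 37 °C, rinsed three times, then grown into colonies. Eight-point curves spanned 0.32-0.0015 μg/mL (CX-1) and 3.2-0.025 μg/mL (CV-1). IC50 is the concentration killing 50% of cells.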

Assay [3] has as its system CX-1 Human Colon Carcinoma. The assay can be described thus: Clonogenic dye screening assay, CX-1 cells (IC50). Particulars: for CX (IC50 in the CX-1 cell line): 3 hrs treatment, unit from method b117-118; for IC50: Homo sapiens; for CV/CX: selectivity ratio of IC50 values; for CV/CX (selectivity, kill ratio): ratio of IC50 in normal CV-1 line to IC50 in carcinoma CX-1 line; for Selectivity: IC50 CV-1 / IC50 cell line 2 (CX-1). The format is cell-based. The arrangement: CX: unit not given here. In short, it runs like this:
as §3

Assay [4] concerns MCF-7 Human Breast Carcinoma. Nature of the assay: Initial in vitro screening, breast carcinoma cells. The assay is classed as cell-based. Particulars: for IC50: MCF7, read-out: IC50 (concentration at which 50% of the cells of the culture are killed); for IC50 / IC50 (concentration at which 50% of the cells of the culture are killed): cell line 3, MCF-7 human breast carcinoma, unit from method; for Selectivity: IC50 CV-1 / IC50 cell line 3 (breast carcinoma).
Source text: as §1, §2

The subject of assay [5] is CCL 105 Human Adrenal Cortex Carcinoma. The assay can be described thus: Initial in vitro screening, adrenal cortex carcinoma cells. As to conditions: for IC50: read-out: IC50 (concentration at which 50% of the cells of the culture are killed); for Selectivity: IC50 CV-1 / IC50 cell line 8 (adrenal cortex carcinoma). The assay is classed as cell-based.
Source text: as §1, §2

Assay [6] relates to SCC 68 Human Squamous Cell Carcinoma. The assay can be described thus: Initial in vitro screening, squamous cell carcinoma cells. As to conditions: for IC50: read-out: IC50 (concentration at which 50% of the cells of the culture are killed); for Selectivity: IC50 CV-1 / IC50 cell line 7 (squamous cell carcinoma). The format is cell-based.
Source text: as §1, §2

In assay [7] the test system is CRL 1420 Human Pancreatic Carcinoma. Nature of the assay: Initial in vitro screening, pancreatic carcinoma cells. The assay is classed as cell-based. As to conditions: for IC50: read-out: IC50 (concentration at which 50% of the cells of the culture are killed); for Selectivity: IC50 CV-1 / IC50 cell line 4 (pancreatic carcinoma).
Source text: as §1, §2

Assay [8] concerns EJ Human Bladder Carcinoma. The assay can be described thus: Initial in vitro screening, bladder carcinoma cells. The format is cell-based. Particulars: for IC50 / IC50 (concentration at which 50% of the cells of the culture are killed): cell line 5, EJ human bladder carcinoma, unit from method; for IC50: read-out: IC50 (concentration at which 50% of the cells of the culture are killed); for Selectivity: IC50 CV-1 / IC50 cell line 5 (bladder carcinoma).
Source text: as §1, §2

[9] abbreviates: cell line 6, CCL 185 human lung carcinoma, unit from method.
Setting [10] is: CV-1, cell line 1, CV-1 normal control, unit from method, read-out: IC50 (concentration at which 50% of the cells of the culture are killed).
Where [11] appears, read: CX-1, cell line 2, CX-1, unit from method, read-out: IC50 (concentration at which 50% of the cells of the culture are killed).
The mark [12] stands for this setting: cell line 8, CCL 105 human adrenal cortex carcinoma, unit from method.
[13] abbreviates: cell line 7, SCC 68 human squamous cell carcinoma, unit from method.
Setting [14] is: cell line 4, CRL 1420 human pancreatic carcinoma, unit from method.
Setting [15] is: CV-1, Table XIX, CV-1 cells, read-out: CV.
[16] abbreviates: CX-1, Table XIX, CX-1 cells, read-out: CX.

As to `CCN1/C(=C/C=C/c2sc3cc4ccccc4cc3[n+]2CC)Sc2cc3ccccc3cc21` [Dye D-160], the IC50 in assay [1] (setting [9]) was less than 0.005 µg/mL; in assay [2] (setting [10]) it was 0.3 µg/mL; in assay [3] (setting [11]), less than 0.005 µg/mL; in assay [4], less than 0.005 µg/mL; in assay [5] (setting [12]), less than 0.005 µg/mL; in assay [6] (setting [13]), less than 0.005 µg/mL. Besides, the IC50 in assay [7] (setting [14]) and in assay [8] was less than 0.005 µg/mL throughout. For the same compound, the “CX (IC50 in the CX-1 cell line)” value in assay [3] (colonies after 7-10 days) was found to be 0.05 µg/mL. This compound also registered a CX in assay [3] (Table XIX, CX-1 cells) of 0.004. For the same compound, the CV/CX in assay [3] (Table XIX) was found to be 75.000. Further, the “CV/CX (selectivity, kill ratio)” value in assay [3] is recorded as 100.
`CCN1/C(=C/C=C/c2sc3cc4ccccc4cc3[n+]2CC)Sc2cc3ccccc3cc21` [Dye D-109]: the IC50 in assay [2] (setting [15]) is 0.3 µg/mL; in assay [3] (setting [16]), 0.004 µg/mL. The “CX (IC50 in the CX-1 cell line)” value in assay [3] (colonies after 7-10 days) is less than 0.005 µg/mL. The CV/CX in assay [3] (Table XIX) was 75.000. The “CV/CX (selectivity, kill ratio)” value in assay [3] was 60 and >60.0.
`CCN1/C(=C\C=C\C2=[N+](CC)c3ccccc3C2(C)C)C(C)(C)c2ccccc21` [Dye D-103]: the IC50 was determined as 5 µg/mL in assay [2] (CV-1, read-out: CV); 5 µg/mL in assay [2] (CV-1, read-out: CV (IC50 in the CV-1 cell line)); 0.01 µg/mL in assay [3] (CX-1, read-out: CX); 0.01 µg/mL in assay [3] (CX-1, read-out: CX (IC50 in the CX-1 cell line)). Moreover, the CV/CX in assay [3] (Table XIX) was 500.000; in assay [3] (Table XV), 500.0. Besides, the “CV/CX (selectivity, kill ratio)” value in assay [3] came to 500.
Regarding `CCN1/C(=C/C=C/c2sc3ccccc3[n+]2CC)Sc2ccccc21.[I-]` [Dye D-101], the Selectivity is listed as 50 in assay [1]; 100 in assay [3]; 13.3 in assay [4]; more than 100 in assay [5]; 13.3 in assay [6]; 100 in assay [7]. Further, in assay [8], the Selectivity is on record as more than 100. In addition, the “IC50 (concentration at which 50% of the cells of the culture are killed)” value in assay [2] (unit from method) is 0.5 µg/mL and 0.50 µg/mL; in assay [4] it was 0.03 µg/mL; in assay [8], less than 0.005 µg/mL. For the same compound, the “CX (IC50 in the CX-1 cell line)” value in assay [3] (colonies after 7-10 days) is less than 0.005 µg/mL. Also, the CX in assay [3] (Table XIX, CX-1 cells) was 0.004. Further, the CV/CX in assay [3] (Table XIX) was 100.000 and 75.000; in assay [3] (Table XV) it was 100.0. In addition, the “CV/CX (selectivity, kill ratio)” value in assay [3] was 100 and >100.0.
Consider `CCN1C(=CC=Cc2sc3cc4ccccc4nc3[n+]2CC)Sc2cc3ccccc3nc21` [Dye D-150], for which the Selectivity in assay [1] is recorded as 150; in assay [3] it was 100; in assay [4] it was 100; in assay [5] it was 300; in assay [6] it was 30; in assay [7], 100. The same compound gave a Selectivity in assay [8] of 300. Besides, the IC50 in assay [1] (setting [9]) came to 0.02 µg/mL; in assay [2] (CV-1, 3 hrs treatment, colonies after 7-10 days, unit from method, read-out: CV (IC50 in the CV-1 cell line)), 3 µg/mL; in assay [2] (setting [15]), 3 µg/mL; in assay [2] (setting [10]), 3 µg/mL; in assay [3] (CX-1, 3 hrs treatment, colonies after 7-10 days, unit from method, read-out: CX (IC50 in the CX-1 cell line)) it was 0.03 µg/mL; in assay [3] (setting [16]), 0.03 µg/mL. For the same compound, the IC50 came out at 0.03 µg/mL in assay [3] (setting [11]); 0.03 µg/mL in assay [4]; 0.01 µg/mL in assay [5] (setting [12]); 0.1 µg/mL in assay [6] (setting [13]); 0.03 µg/mL in assay [7] (setting [14]); 0.01 µg/mL in assay [8]. The CV/CX in assay [3] (Table XIX) is listed as 100.000. Further, in assay [3], the “CV/CX (selectivity, kill ratio)” value is given as 100.
On to `COc1cccc2c1C(=O)c1c(O)c3c(c(O)c1C2=O)C[C@@](O)(C(=O)CO)C[C@@H]3O[C@H]1C[C@H](N)[C@H](O)[C@H](C)O1` [Adriamycin, reference compound], for which the Selectivity is listed as 11 in assay [1]; 1.5 in assay [3]; 16 in assay [4]; 16 in assay [5]; 10 in assay [6]; 13 in assay [7]. This compound also yielded a Selectivity in assay [8] of 8. Besides, the IC50 in assay [1] (setting [9]) is 0.07 µg/mL (≈ 0.129 µM); in assay [2] (setting [10]), 0.8 µg/mL (≈ 1.47 µM); in assay [3] (setting [11]), 0.55 µg/mL (≈ 1.01 µM); in assay [4], 0.05 µg/mL (≈ 0.092 µM); in assay [5] (setting [12]), 0.05 µg/mL (≈ 0.092 µM); in assay [6] (setting [13]), 0.08 µg/mL (≈ 0.147 µM). Besides, the IC50 in assay [7] (setting [14]) was determined as 0.06 µg/mL (≈ 0.11 µM); in assay [8] it was 0.1 µg/mL (≈ 0.184 µM).
As to `CCN1C(=CC=Cc2sc3cc4ccccc4cc3[n+]2CC)Sc2cc3ccccc3cc21` [AC-2], the Selectivity in assay [1], in assay [3], in assay [4], in assay [5], in assay [6] and in assay [7] was more than 60 in each case. Besides, the Selectivity in assay [8] was more than 60. For the same compound, the “IC50 (concentration at which 50% of the cells of the culture are killed)” value was “<.005 µg/mL” in assay [1] (setting [9]); 0.30 µg/mL in assay [2] (unit from method); “<.005 µg/mL” in assay [3] (cell line 2, CX-1, unit from method); “<.005 µg/mL” in assay [4]; “<.005 µg/mL” in assay [5] (setting [12]); “<.005 µg/mL” in assay [6] (setting [13]). The “IC50 (concentration at which 50% of the cells of the culture are killed)” value in assay [7] (setting [14]) and in assay [8] was “<.005 µg/mL” each time.
